“Also recorded” adds a separate entry of the source. Ends that are not written are not given here.
Assays:
microorganisms [1] = test: Morphology, biofilm and growth disruption by peptides (Table 5); format: cell-based; set-up: key: A: Peptide aggregates; B: Less hyphal formation; Clumps; Diffuse clumps and small polyps; F: Diffuse growth; H: Thin; I: Growth inhibition; Microcolony formation; Rippled; Small polyps; Thick; W: Halo formation on top, microlonies on bottom
Description: In certain embodiments peptides that induce alterations in phenotype or other biological activities can also be used as antimicrobial effector moieties.

microorganisms [2] = test: Peptide activities: binding, antimicrobial, growth or phenotype altering (Table 8)
Description: In certain embodiments, peptides described herein can have multiple activities. Thus for example, a peptide can have both binding/targeting activity and antimicrobial activity. Such peptides can be used, e.g., in a chimeric construct, for any or all of these properties. Thus, for example, a peptide designated “B” in Table 8 can be used as a targeting peptide. If it is also designated G or M it can also be used for antimicrobial activity.

bacteria = test: Binding of targeting peptides to microorganisms (Table 3); details: preferably 1x PBS; for Target(s) (microorganism bound by the targeting peptide) / Target(s) (microorganisms bound by the targeting peptide): peptide binding in aqueous buffers that varied depending on peptide solubility
[3] = microorganism the targeting peptide binds, binding in aqueous buffers that varied with peptide solubility

Row | Substance | Organism, effect (morphology, biofilm and growth disruption) (microorganisms [1]; S. pneumoniae) | Activities (microorganisms [2]) | Target(s) (microorganisms bound by the targeting peptide) (bacteria) | also measured
1 | PF-764 (chain 1 GYFEPGKRD; chain 2 GYFEPGKRD; Peptide with targeting and/or antimicrobial activity) | S. pneumoniae (H) | G B |  | Organism, effect (morphology, biofilm and growth disruption) (microorganisms [1]; MRSA): MRSA (D); Target(s) (microorganism bound by the targeting peptide) (bacteria): S. epidermidis and M. luteus and C. albicans and MRSA and S. pneumoniae and E. faecalis and C. jeikeium
2 | PF-457 (INKYHHIA; Peptide with targeting and/or antimicrobial activity) | S. pneumoniae (M) | G B | C. albicans; also recorded: S. pneumoniae; also recorded: E. faecalis; also recorded: C. jeikeium | 
3 | PF-635 (chain 1 MNAHGHSLIFQKMIVHAFAFFSKQKNYLYF; chain 2 MNAHGHSLIFQKMIVHAFAFFSKQKNYLYF; Peptide with targeting and/or antimicrobial activity) | S. pneumoniae (D) | G B |  | Organism, effect (morphology, biofilm and growth disruption) (microorganisms [1]; C. albicans): C. albicans (B); Organism, effect (morphology, biofilm and growth disruption) (microorganisms [1]; C. jeikeium): C. jeikeium (D); Organism, effect (morphology, biofilm and growth disruption) (microorganisms [1]; E. faecalis): E. faecalis (D); Organism, effect (morphology, biofilm and growth disruption) (microorganisms [1]; MRSA): MRSA (D); Organism, effect (morphology, biofilm and growth disruption) (microorganisms [1]; S. epidermidis): S. epidermidis (M); Target(s) (microorganism bound by the targeting peptide) (bacteria): S. epidermidis and P. aeruginosa and C. albicans and MRSA and S. pneumoniae and E. faecalis and C. jeikeium
4 | PF-C061 (TLNYKKMFFSVIFLLGLNYLICNSPLFFKQIEF; Peptide with targeting and/or antimicrobial activity) |  | G B |  | Organism, effect (morphology, biofilm and growth disruption) (microorganisms [1]; F. nucleatum): F. nucleatum (T); Organism, effect (morphology, biofilm and growth disruption) (microorganisms [1]; S. mutans): S. mutans (F); Target(s) (microorganism bound by the targeting peptide) (bacteria): A. naeslundii; also recorded: F. nucleatum; also recorded: P. gingivalis; also recorded: S. mutans; also recorded: T. denticola
5 | PF-464 (VDMVNRFLGN; Peptide with targeting and/or antimicrobial activity) | S. pneumoniae (S) | G B | S. epidermidis and C. albicans and MRSA and S. pneumoniae and E. faecalis and C. jeikeium and C. jejuni | 
6 | PF-382 (KYKCSWCKRVYTLRKDHKTAR; Peptide with targeting and/or antimicrobial activity) |  | G B |  | Organism, effect (microorganisms [1]; MRSA): MRSA (M); Target(s) (bacteria; microorganism bound by the targeting peptide, binding in aqueous buffers chosen by peptide solubility): S. epidermidis; also recorded: B. subtilis; also recorded: B. fragilis; also recorded: E. coli; also recorded: P. aeruginosa; also recorded: E. faecalis; also recorded: C. jeikeium; also recorded: C. jejuni
7 | PF-476 (WADAQYKLCENCSE; Peptide with targeting and/or antimicrobial activity) | S. pneumoniae (H) | G B | M. luteus; also recorded: P. mirabilis; also recorded: C. albicans; also recorded: S. pneumoniae; also recorded: E. faecalis; also recorded: C. jeikeium; also recorded: C. jejuni | 
8 | PF-744 (chain 1 LGVGTFVGKVLIKNQQKQKSKKKAQ; chain 2 LGVGTFVGKVLIKNQQKQKSKKKAQ; Peptide with targeting and/or antimicrobial activity) | S. pneumoniae (H) | G B |  | Target(s) (microorganism bound by the targeting peptide) (bacteria): S. epidermidis and M. luteus and E. coli and MRSA and S. pneumoniae and E. faecalis and C. jeikeium
9 | PF-027 (HNARKYLEFISQKIDGDKLTKEDSL; Peptide with targeting and/or antimicrobial activity) |  | G B |  | Organism, effect (microorganisms [1]; MRSA): MRSA (M); Organism, effect (microorganisms [1]; S. epidermidis): S. epidermidis (D); Target(s) (bacteria; [3]): M. luteus and MRSA and E. faecalis and C. jejuni
10 | PF-043 (MIKNETAYQMNELLVIRSAYAK; Peptide with targeting and/or antimicrobial activity) |  | G B |  | Organism, effect (microorganisms [1]; C. jeikeium): C. jeikeium (A); Organism, effect (microorganisms [1]; M. luteus): M. luteus (C); Organism, effect (microorganisms [1]; MRSA): MRSA (R); Organism, effect (microorganisms [1]; S. epidermidis): S. epidermidis (D); Target(s) (bacteria; [3]): M. luteus; also recorded: C. jejuni
11 | PF-058 (FADQSQDNA; Peptide with targeting and/or antimicrobial activity) |  | G B |  | Organism, effect (microorganisms [1]; MRSA): MRSA (M); Target(s) (bacteria; [3]): S. epidermidis and M. luteus and E. coli and C. albicans and MRSA and C. jeikeium and C. jejuni
12 | PF-461 (MTLAIKNCSVTKCLGFGDFVNDDSDSYFDA; Peptide with targeting and/or antimicrobial activity) | S. pneumoniae (R) | G B | E. coli; also recorded: S. pneumoniae | Organism, effect (morphology, biofilm and growth disruption) (microorganisms [1]; E. faecalis): E. faecalis (A); Organism, effect (morphology, biofilm and growth disruption) (microorganisms [1]; MRSA): MRSA (R)
13 | PF-394 (VLKEECYQKN; Peptide with targeting and/or antimicrobial activity) |  | G B | S. epidermidis and MRSA and C. jejuni | Organism, effect (microorganisms [1]; E. faecalis): E. faecalis (A); Organism, effect (microorganisms [1]; MRSA): MRSA (C)
14 | PF-026 (SIHFIN; Peptide with targeting and/or antimicrobial activity) |  | G B |  | Organism, effect (microorganisms [1]; MRSA): MRSA (M); Target(s) (bacteria; [3]): S. epidermidis and M. luteus and P. mirabilis and C. albicans and MRSA and E. faecalis and C. jeikeium
15 | PF-573 (EKKLIVKLIDSIGKSHEEIVGAG; Peptide with targeting and/or antimicrobial activity) | S. pneumoniae (C) | G B | S. epidermidis; also recorded: S. pneumoniae | 
16 | PF-446 (SGNEKV; Peptide with targeting and/or antimicrobial activity) | S. pneumoniae (H) | G B | M. luteus; also recorded: C. jeikeium | 
17 | PF-564 (TIILNDQINSLQERLNKLNAETDRR; Peptide with targeting and/or antimicrobial activity) |  | G B | S. epidermidis; also recorded: C. albicans; also recorded: S. pneumoniae; also recorded: C. jeikeium | Organism, effect (morphology, biofilm and growth disruption) (microorganisms [1]; B. subtilis): B. subtilis (D); Organism, effect (morphology, biofilm and growth disruption) (microorganisms [1]; C. jeikeium): C. jeikeium (R); Organism, effect (morphology, biofilm and growth disruption) (microorganisms [1]; C. jejuni): C. jejuni (R); Organism, effect (morphology, biofilm and growth disruption) (microorganisms [1]; MRSA): MRSA (C)
18 | PF-515 (DKSTQDKDIKQAKLLAQELGL-NH2) | S. pneumoniae (H) | G B | S. epidermidis; also recorded: C. albicans; also recorded: S. pneumoniae; also recorded: C. jeikeium | 
19 | PF-757 (chain 1 PQAISSVQQNA; chain 2 PQAISSVQQNA; Peptide with targeting and/or antimicrobial activity) | S. pneumoniae (H) | G B |  | Target(s) (microorganism bound by the targeting peptide) (bacteria): M. luteus and C. albicans and MRSA
20 | PF-551 (QVKEKRREIELQFRDAEKKLEASVQAE; Peptide with targeting and/or antimicrobial activity) |  | G B | S. pneumoniae | Organism, effect (morphology, biofilm and growth disruption) (microorganisms [1]; MRSA): MRSA (C)
21 | PF-C095 (LLALNMNEDTYYFELFFIFDNQNKKWLIFDLKERG; Peptide with targeting and/or antimicrobial activity) |  | G B |  | Organism, effect (morphology, biofilm and growth disruption) (microorganisms [1]; F. nucleatum): F. nucleatum (T); Target(s) (microorganism bound by the targeting peptide) (bacteria): A. naeslundii; also recorded: F. nucleatum; also recorded: P. gingivalis; also recorded: S. mutans
22 | PF-552 (ELDKADAALGPAKNLAPLDVINRS; Peptide with targeting and/or antimicrobial activity) |  | G B | S. pneumoniae | Organism, effect (morphology, biofilm and growth disruption) (microorganisms [1]; B. subtilis): B. subtilis (D)
23 | PF-467 (YYKDYFKEI; Peptide with targeting and/or antimicrobial activity) | S. pneumoniae (H) | G B | MRSA and E. faecalis and C. jeikeium and C. jejuni | 
24 | PF-061 (GYNSYKAVQDVKTHSEEQRVTAKK; Peptide with targeting and/or antimicrobial activity) |  | G B |  | Organism, effect (microorganisms [1]; B. subtilis): B. subtilis (R); Organism, effect (microorganisms [1]; C. jejuni): C. jejuni (R); Organism, effect (microorganisms [1]; S. epidermidis): S. epidermidis (R); Organism, effect (microorganisms [1]; S. pneumoniae): S. pneumoniae (R); Target(s) (bacteria; [3]): S. epidermidis; also recorded: S. pneumoniae
25 | PF-453 (IIQDIAHAFGY; Peptide with targeting and/or antimicrobial activity) | S. pneumoniae (C) | G B | M. luteus; also recorded: E. coli; also recorded: P. aeruginosa; also recorded: S. pneumoniae; also recorded: E. faecalis; also recorded: C. jeikeium; also recorded: C. jejuni | Organism, effect (morphology, biofilm and growth disruption) (microorganisms [1]; E. coli): E. coli (C); Organism, effect (morphology, biofilm and growth disruption) (microorganisms [1]; MRSA): MRSA (C); Organism, effect (morphology, biofilm and growth disruption) (microorganisms [1]; S. epidermidis): S. epidermidis (C)

From US9597407B2, “Targeted antimicrobial moieties” (C3 Jian, Inc., priority 2009, dated 2017)
